Source: PubChem BioAssay AID248 (DTP/NCI, 2004)
“And” between values parts separate entries of the source, which are not always exact repeats. Identical values can stand only once. Inconclusive results and toxic doses are left out.

Tested on: L1210 leukemia ip in BDF1 mice, survival T/C
Assay: NCI In Vivo Anticancer Drug Screen. Data for tumor model L1210 Leukemia (intraperitoneal) in B6D2F1 (BDF1) mice
Conditions: endpoint: mean survival time, higher = longer survival
How it was run: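 Transplantable tumor model; survival measured in treated vs vehicle control mice. Value = treated/control.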

[1] = dose: 50.0 mg/kg/injection, schedule: Q01DX001 (ip), vehicle: saline
[2] = dose: 100.0 mg/kg/injection, schedule: Q01DX001 (ip), vehicle: saline
[3] = dose: 200.0 mg/kg/injection, schedule: Q01DX001 (ip), vehicle: saline
[4] = dose: 100.0 mg/kg/injection, schedule: Q04DX003 (ip), vehicle: Klucel (hydroxypropylcellulose) (HPC)
[5] = dose: 200.0 mg/kg/injection, schedule: Q04DX003 (ip), vehicle: Klucel (hydroxypropylcellulose) (HPC)
[6] = dose: 400.0 mg/kg/injection, schedule: Q04DX003 (ip), vehicle: Klucel (hydroxypropylcellulose) (HPC)
[7] = dose: 100.0 mg/kg/injection, schedule: Q04DX003 (ip), vehicle: saline
[8] = dose: 200.0 mg/kg/injection, schedule: Q04DX003 (ip), vehicle: saline
[9] = dose: 400.0 mg/kg/injection, schedule: Q04DX003 (ip), vehicle: saline
[10] = dose: 400.0 mg/kg/injection, schedule: Q01DX001 (ip), vehicle: saline
[11] = dose: 50.0 mg/kg/injection, schedule: Q04DX003 (ip), vehicle: Klucel (hydroxypropylcellulose) (HPC)
[12] = dose: 100.0 mg/kg/injection, schedule: Q01DX009 (ip), vehicle: Klucel (hydroxypropylcellulose) (HPC)

O=NN1CCOCC1
T/C [1]: 104 % of control | T/C [2]: 93 % of control | T/C [3]: 104 % of control

CC(C)(C)NC(=O)CCC1C2C=CC(C2)C1C(=O)NC(C)(C)C (stereo not given)
T/C (dose: 100.0 mg/kg/injection, schedule: Q01DX001 (ip), vehicle: Klucel (hydroxypropylcellulose) (HPC)): 97 % of control | T/C [4]: 101 % of control | T/C (dose: 200.0 mg/kg/injection, schedule: Q01DX001 (ip), vehicle: Klucel (hydroxypropylcellulose) (HPC)): 92 % of control | T/C [5]: 97 % of control | T/C (dose: 400.0 mg/kg/injection, schedule: Q01DX001 (ip), vehicle: Klucel (hydroxypropylcellulose) (HPC)): 98 % of control | T/C [6]: 107 % of control

Cc1ccc(S(=O)(=O)NC(CC(C)C)C(=O)O)cc1 (stereo not given)
T/C (dose: 100.0 mg/kg/injection, schedule: Q01DX001 (ip), vehicle: other): 101 % of control | T/C (dose: 200.0 mg/kg/injection, schedule: Q01DX001 (ip), vehicle: other): 96 % of control | T/C (dose: 400.0 mg/kg/injection, schedule: Q01DX001 (ip), vehicle: other): 98 % of control

CN(C)CCN(C)Cc1cc(=O)[nH]c(=O)[nH]1
T/C [7]: 96 % of control | T/C [8]: 100 % of control | T/C [9]: 100 % of control

Cc1nn(C2CC(O)C(CO)O2)c(=O)[nH]c1=O (stereo not given)
T/C [2]: 98 % of control | T/C [3]: 95 % of control | T/C [10]: 93 % of control

CC(C)C(=O)c1ccc(-c2ccccc2)cc1
T/C (dose: 25.0 mg/kg/injection, schedule: Q01DX009 (ip), vehicle: water): 101 % of control | T/C (dose: 50.0 mg/kg/injection, schedule: Q01DX009 (ip), vehicle: water): 106 % of control | T/C (dose: 100.0 mg/kg/injection, schedule: Q01DX009 (ip), vehicle: water): 98 % of control | T/C (dose: 200.0 mg/kg/injection, schedule: Q01DX009 (ip), vehicle: water): 95 % of control | T/C (dose: 400.0 mg/kg/injection, schedule: Q01DX009 (ip), vehicle: water): 93 % of control

CCOC(=O)C(C(=O)OCC)c1cc(Cl)nnc1Cl
T/C (dose: 100.0 mg/kg/injection, schedule: Q04DX002 (ip), vehicle: saline): 91 % of control | T/C (dose: 200.0 mg/kg/injection, schedule: Q04DX002 (ip), vehicle: saline): 91 % of control

O=c1c(=NNc2ccccc2)c(=O)c2ccccc12
T/C [1]: 94 % of control | T/C [2]: 94 % of control | T/C [3]: 88 % of control | T/C [10]: 102 % of control

CN(C)N=C1CCC(=NN(C)C)CC1
T/C (dose: 12.5 mg/kg/injection, schedule: Q04DX003 (ip), vehicle: saline): 100 % of control | T/C (dose: 25.0 mg/kg/injection, schedule: Q04DX003 (ip), vehicle: saline): 100 % of control | T/C (dose: 50.0 mg/kg/injection, schedule: Q04DX003 (ip), vehicle: saline): 94 % of control | T/C [7]: 100 % of control | T/C [8]: 99 % of control

O=C(CCCN1CC=C(n2c(=O)[nH]c3ccccc32)CC1)c1ccc(F)cc1
T/C (dose: 6.25 mg/kg/injection, schedule: Q01DX009 (ip), vehicle: Klucel (hydroxypropylcellulose) (HPC)): 100 % of control | T/C (dose: 6.25 mg/kg/injection, schedule: Q04DX003 (ip), vehicle: Klucel (hydroxypropylcellulose) (HPC)): 103 % of control | T/C (dose: 12.5 mg/kg/injection, schedule: Q01DX009 (ip), vehicle: Klucel (hydroxypropylcellulose) (HPC)): 104 % of control | T/C (dose: 12.5 mg/kg/injection, schedule: Q04DX003 (ip), vehicle: Klucel (hydroxypropylcellulose) (HPC)): 103 % of control | T/C (dose: 25.0 mg/kg/injection, schedule: Q01DX009 (ip), vehicle: Klucel (hydroxypropylcellulose) (HPC)): 98 % of control | T/C (dose: 25.0 mg/kg/injection, schedule: Q04DX003 (ip), vehicle: Klucel (hydroxypropylcellulose) (HPC)): 103 % of control | T/C (dose: 50.0 mg/kg/injection, schedule: Q01DX009 (ip), vehicle: Klucel (hydroxypropylcellulose) (HPC)): 102 % of control | T/C [11]: 106 % of control | T/C [12]: 94 % of control | T/C [4]: 101 % of control and 111 % of control

Oc1ccc(Br)cc1Sc1cc(Br)ccc1O
T/C (dose: 100.0 mg/kg/injection, schedule: Q01DX001 (ip), vehicle: carboxymethylcellulose (CMC)): 100 % of control | T/C [2]: 97 % of control | T/C (dose: 200.0 mg/kg/injection, schedule: Q01DX001 (ip), vehicle: carboxymethylcellulose (CMC)): 103 % of control | T/C [3]: 95 % of control | T/C (dose: 400.0 mg/kg/injection, schedule: Q01DX001 (ip), vehicle: carboxymethylcellulose (CMC)): 95 % of control | T/C [10]: 95 % of control

Nc1nnc(N)c2nc(-c3ccccc3)c(-c3ccccc3)nc12
T/C [12]: 101 % of control | T/C (dose: 200.0 mg/kg/injection, schedule: Q01DX009 (ip), vehicle: Klucel (hydroxypropylcellulose) (HPC)): 101 % of control

CS(=O)(=O)OC1C(OCc2ccccc2)OC(COCc2ccccc2)C(OC2OC(COCc3ccccc3)C(OCc3ccccc3)C(OCc3ccccc3)C2OCc2ccccc2)C1OCc1ccccc1 (stereo not given)
T/C [11]: 93 % of control | T/C [4]: 93 % of control | T/C [5]: 97 % of control | T/C [6]: 93 % of control

c1ccc(CCN2CCC(CCc3c[nH]c4ccccc34)CC2)cc1
T/C [1]: 96 % of control | T/C [2]: 117 % of control

CN(CCO)N=Nc1ccccc1
T/C (dose: 6.0 mg/kg/injection, schedule: Q01DX009 (ip), vehicle: other): 105 % of control | T/C (dose: 12.0 mg/kg/injection, schedule: Q01DX009 (ip), vehicle: other): 96 % of control | T/C (dose: 12.5 mg/kg/injection, schedule: Q01DX009 (ip), vehicle: other): 112 % of control | T/C (dose: 18.0 mg/kg/injection, schedule: Q01DX009 (ip), vehicle: other): 88 % of control | T/C (dose: 25.0 mg/kg/injection, schedule: Q01DX009 (ip), vehicle: other): 109 % of control

CCCCOP(=O)(N1CC1C)N1CC1C (stereo not given)
T/C (dose: 6.25 mg/kg/injection, schedule: Q04DX003 (ip), vehicle: acetone): 109 % of control | T/C (dose: 12.5 mg/kg/injection, schedule: Q04DX003 (ip), vehicle: acetone): 115 % of control | T/C (dose: 25.0 mg/kg/injection, schedule: Q01DX001 (ip), vehicle: saline): 123 % of control | T/C (dose: 25.0 mg/kg/injection, schedule: Q04DX003 (ip), vehicle: acetone): 153 % of control and 168 % of control | T/C (dose: 37.5 mg/kg/injection, schedule: Q04DX003 (ip), vehicle: acetone): 163 % of control | T/C [1]: 164 % of control | T/C (dose: 66.0 mg/kg/injection, schedule: Q01DX001 (ip), vehicle: acetone): 158 % of control | T/C (dose: 75.0 mg/kg/injection, schedule: Q04DX003 (ip), vehicle: acetone): 91 % of control | T/C (dose: 100.0 mg/kg/injection, schedule: Q01DX001 (ip), vehicle: acetone): 169 % of control | T/C [2]: 159 % of control and 192 % of control | T/C (dose: 150.0 mg/kg/injection, schedule: Q01DX001 (ip), vehicle: acetone): 189 % of control | T/C (dose: 150.0 mg/kg/injection, schedule: Q01DX001 (ip), vehicle: saline): 168 % of control

Nc1cc(S(=O)(=O)O)cc2cc(S(=O)(=O)O)c(N=Nc3cc(S(=O)(=O)O)cc4cc(S(=O)(=O)O)cc(O)c34)c(O)c12
T/C (dose: 100.0 mg/kg/injection, schedule: Q01DX009 (ip), vehicle: saline): 105 % of control | T/C [7]: 96 % of control | T/C (dose: 200.0 mg/kg/injection, schedule: Q01DX009 (ip), vehicle: saline): 94 % of control | T/C [8]: 91 % of control | T/C (dose: 400.0 mg/kg/injection, schedule: Q01DX009 (ip), vehicle: saline): 95 % of control | T/C [9]: 96 % of control

O=C(O)/C=C/c1nc2ccccc2nc1-c1ccccc1
T/C (dose: 100.0 mg/kg/injection, schedule: Q04DX002 (ip), vehicle: Klucel (hydroxypropylcellulose) (HPC)): 101 % of control | T/C (dose: 200.0 mg/kg/injection, schedule: Q04DX002 (ip), vehicle: Klucel (hydroxypropylcellulose) (HPC)): 113 % of control | T/C (dose: 400.0 mg/kg/injection, schedule: Q04DX002 (ip), vehicle: Klucel (hydroxypropylcellulose) (HPC)): 101 % of control

CCCCSCCO
T/C (dose: 100.0 mg/kg/injection, schedule: Q01DX009 (ip), vehicle: saline with Tween-80): 89 % of control | T/C (dose: 100.0 mg/kg/injection, schedule: Q04DX002 (ip), vehicle: saline with Tween-80): 96 % of control | T/C (dose: 200.0 mg/kg/injection, schedule: Q01DX009 (ip), vehicle: saline with Tween-80): 96 % of control | T/C (dose: 200.0 mg/kg/injection, schedule: Q04DX002 (ip), vehicle: saline with Tween-80): 93 % of control | T/C (dose: 400.0 mg/kg/injection, schedule: Q01DX009 (ip), vehicle: saline with Tween-80): 107 % of control | T/C (dose: 400.0 mg/kg/injection, schedule: Q04DX002 (ip), vehicle: saline with Tween-80): 86 % of control
